The source of these data is patent US5539132A, “Cerulenin compounds for fatty acid synthesis inhibition” (Johns Hopkins University, priority 1994, dated 1996).

The subject of one data set is fatty acid synthase. Particulars: cited from earlier work.
The subject of the next data set is HIV protease. Particulars: cited from earlier work.
Data set [1] relates to bacteria, actinomycetes, and mycobacteria. Particulars: cited from earlier work.
Data set [2] has as its system myristoylation of proteins. Particulars: cited from earlier work.
In a further data set the test system is HS 27 cells. Put plainly: Growth inhibition assay, HS 27 cells (crystal violet). Format: cell-based. The settings on record: Homo sapiens, HS27, 72 h; 3 days with compound. The protocol: (§1) Cells were seeded at 5×10^3 per well into 96-well plates and incubated for 3 days in RPMI, 10% FBS at 37° C. in a 5% CO2 :95% air atmosphere. Medium was removed and replaced with media plus compound. Compound doses were 10 serial dilutions from 200 μg/ml to 0.39 μg/ml. Cells were returned to the incubator for 3 additional days. The medium was removed and plates were washed twice with phosphate buffered saline. Wells were filled with 100 μl of 0.2% crystal violet in 2% ethanol for 10 min. Stain was removed from the wells and the plates were washed 3 times with distilled H2 O. After at least 4 h of drying wells were filled with 100 μl of 1% SDS and plates were shaken to disolve any dye crystals. Absorbance at 560 nm minus 650 nm in each well was measured using a Molecular Devices plate reader. IC50 values were calculated from 4-parameter curve-fits of the dose-response curves.

Data set [3] has as its system Mycobacterium tuberculosis. Particulars: cited from earlier work.
In data set [4] the target is T1, FAS (fatty acid synthase), Cancer (Homo sapiens, UniProt P49327).
T1 construct: using a crude cell extract of a cancer cell line or Saccharomyces cerevisiae; endogenous in cells; host or cells: ZR-75-1 breast cancer cell line (crude dialyzed digitonin extract)
T1 sequence (P49327 whole entry): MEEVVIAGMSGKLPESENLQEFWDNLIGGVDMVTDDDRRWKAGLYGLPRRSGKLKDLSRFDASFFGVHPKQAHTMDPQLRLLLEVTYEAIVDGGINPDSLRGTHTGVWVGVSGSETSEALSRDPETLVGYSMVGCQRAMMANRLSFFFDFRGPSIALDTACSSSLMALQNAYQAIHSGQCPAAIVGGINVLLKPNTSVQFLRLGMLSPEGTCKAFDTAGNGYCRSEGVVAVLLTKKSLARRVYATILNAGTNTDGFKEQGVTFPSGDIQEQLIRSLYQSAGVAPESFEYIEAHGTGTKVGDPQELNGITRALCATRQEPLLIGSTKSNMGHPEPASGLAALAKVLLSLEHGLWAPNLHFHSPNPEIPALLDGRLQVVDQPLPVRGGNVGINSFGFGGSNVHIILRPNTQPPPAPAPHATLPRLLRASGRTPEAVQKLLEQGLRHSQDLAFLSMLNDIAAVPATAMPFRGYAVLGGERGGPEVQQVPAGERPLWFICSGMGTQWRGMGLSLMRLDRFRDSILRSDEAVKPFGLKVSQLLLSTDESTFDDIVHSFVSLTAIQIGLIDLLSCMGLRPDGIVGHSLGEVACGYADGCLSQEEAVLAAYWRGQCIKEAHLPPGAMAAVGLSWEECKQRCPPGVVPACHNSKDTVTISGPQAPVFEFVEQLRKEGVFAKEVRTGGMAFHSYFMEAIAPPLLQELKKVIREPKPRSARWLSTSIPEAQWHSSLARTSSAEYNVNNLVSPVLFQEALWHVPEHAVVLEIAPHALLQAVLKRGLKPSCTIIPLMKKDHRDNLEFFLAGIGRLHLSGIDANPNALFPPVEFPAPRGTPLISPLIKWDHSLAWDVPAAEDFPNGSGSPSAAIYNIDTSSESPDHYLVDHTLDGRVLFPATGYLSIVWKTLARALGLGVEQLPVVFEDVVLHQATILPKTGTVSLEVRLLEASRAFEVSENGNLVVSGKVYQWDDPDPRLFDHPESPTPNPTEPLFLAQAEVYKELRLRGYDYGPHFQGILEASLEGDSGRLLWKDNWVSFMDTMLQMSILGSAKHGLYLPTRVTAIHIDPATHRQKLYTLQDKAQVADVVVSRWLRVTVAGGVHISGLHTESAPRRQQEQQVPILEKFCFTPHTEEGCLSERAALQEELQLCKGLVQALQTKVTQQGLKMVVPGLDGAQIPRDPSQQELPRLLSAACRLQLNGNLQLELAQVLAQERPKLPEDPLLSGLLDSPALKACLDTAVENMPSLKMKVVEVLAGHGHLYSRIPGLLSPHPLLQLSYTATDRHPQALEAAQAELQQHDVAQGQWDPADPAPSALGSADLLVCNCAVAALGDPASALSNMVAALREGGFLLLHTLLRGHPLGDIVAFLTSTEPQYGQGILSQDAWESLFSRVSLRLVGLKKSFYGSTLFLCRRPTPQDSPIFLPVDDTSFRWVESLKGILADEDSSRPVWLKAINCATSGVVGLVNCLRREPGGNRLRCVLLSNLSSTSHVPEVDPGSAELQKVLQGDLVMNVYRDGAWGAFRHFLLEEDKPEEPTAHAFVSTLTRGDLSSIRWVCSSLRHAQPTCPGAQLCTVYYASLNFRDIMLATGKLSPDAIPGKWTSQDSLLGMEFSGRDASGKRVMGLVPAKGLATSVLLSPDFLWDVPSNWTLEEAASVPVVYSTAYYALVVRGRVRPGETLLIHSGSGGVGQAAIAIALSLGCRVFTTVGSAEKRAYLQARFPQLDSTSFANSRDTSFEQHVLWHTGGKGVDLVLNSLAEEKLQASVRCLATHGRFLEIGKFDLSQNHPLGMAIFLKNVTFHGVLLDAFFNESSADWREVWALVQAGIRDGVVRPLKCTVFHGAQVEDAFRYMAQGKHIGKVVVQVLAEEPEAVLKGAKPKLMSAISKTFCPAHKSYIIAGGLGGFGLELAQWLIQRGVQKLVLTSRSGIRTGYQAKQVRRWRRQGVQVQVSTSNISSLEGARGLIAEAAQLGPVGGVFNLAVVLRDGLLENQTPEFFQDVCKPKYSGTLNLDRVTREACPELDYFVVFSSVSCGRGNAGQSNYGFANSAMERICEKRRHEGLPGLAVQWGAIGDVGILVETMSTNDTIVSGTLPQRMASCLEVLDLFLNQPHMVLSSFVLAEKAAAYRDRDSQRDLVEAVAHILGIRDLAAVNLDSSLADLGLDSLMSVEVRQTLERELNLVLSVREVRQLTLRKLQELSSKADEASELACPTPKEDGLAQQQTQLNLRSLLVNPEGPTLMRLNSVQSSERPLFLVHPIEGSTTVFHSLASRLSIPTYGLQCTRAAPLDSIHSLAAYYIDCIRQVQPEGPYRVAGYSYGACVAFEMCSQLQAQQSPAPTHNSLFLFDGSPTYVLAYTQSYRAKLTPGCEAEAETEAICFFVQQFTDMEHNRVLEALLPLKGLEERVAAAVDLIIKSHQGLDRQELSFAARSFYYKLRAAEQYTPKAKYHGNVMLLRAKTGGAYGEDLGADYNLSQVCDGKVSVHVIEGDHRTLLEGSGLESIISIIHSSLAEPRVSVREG
Nature of the data set: FAS enzymatic assay, crude extract of breast cancer cell line ZR-75-1 (NADPH oxidation). Particulars: ZR-75-1 crude cell extract, 30 min incubation at 10°-25° C.; read-out: IC50 for inhibition of FAS activity, Cancer. Type of data set: biochemical. The protocol:
Preparation of crude cell extracts: The potential of compounds to inhibit FAS enzymatic activity was determined using a crude cell extract of a cancer cell line or Saccharomyces cerevisiae. The breast cancer cell line ZR-75-1 was grown to confluence in RPMI with 10$FBS. The cells were harvested by scraping, washed once with cold phosphate buffered saline pH 7.5 and stored at -80° C. Extracts were prepared by thawing the cells in the presence of 4 vol. of 25 mM potassium phosphate pH 7.5, 1 mM EDTA, 1 mM DTT, 0.4% digitonin, 0.7 μg/ml pepstatin, 2 μg/ml aprotinin and 0.5 μg/ml leupeptin. Cells were homogenized with a Dounce type homogenizer for 20 strokes. Extracts were cleared by two sequential centrifugations at 30,000 xg, for 30 min each. The extract was dialyzed against 125 mM potassium phosphate pH 6.6, 1 mM EDTA, 1 mM DTT using a 100,000 molecular weight cut off membrane. The extract stored at 4° C. with 3 mM sodium azide. Yeast extracts were prepared from freeze-dried yeast. Yeast were reconstituted in 5 vol/g 100 mM potassium phosphate pH 6.5. Cells were harvested by centrifugation at 3,000 xg for 10 min. Cells were washed with 5 vol 100 mM potassium phosphate pH 6.5 and suspended in 2 vol. 125 mM potassium phosphate pH 6.6, 1 mM EDTA, 1 mM DTT, 0.7 μg/ml pepstatin, 2 μg/ml aprotinin and 0.5 μg/ml leupeptin. Sterile 0.5 mm glass beads were added (1/2 vol) and the mixture vortex vigorously for four 30 s intervals with 30 s rests on ice between mixes. Extracts were cleared by centrifugation and dialyzed as described above.
Testing of compound activity: Compounds were tested for their ability to inhibit FAS enzymatic activity by incubating the compounds with the crude cell extracts and measuring residual FAS activity. The compounds were mixed with a crude cell extract to the desired concentration and the mixture incubated at 10°-25° C. for 30 min. Residual FAS activity was measured as described below. The concentration of compound giving 50% maximal activity defined the IC50 which was calculated from a 4-parameter equation of the dose-response curves.
Enzymatic assay conditions: The FAS enzyme activity was measured by monitoring the oxidation of NADPH spectrophotometrically (Dils, R. and E. M. Carey, 1975, Fatty acid synthase from rabbit mammary gland. Methods in Enzymol. 35:74-83). A 50 μl portion of an extract or extract-compound mixture was mixed with 50 μl 250 mM potassium phosphate pH 6.6, 40 μM acetyl-CoA, 200 μM malonyl-CoA, 1 mM NADPH and 2 mM DTT. The initial rate of NADPH oxidation at 25° C. was measured by monitoring the decrease in absorbance at 340 nm.

The target in data set [5] is T2, FAS (fatty acid synthase), Yeast (Saccharomyces cerevisiae, UniProt P19097).
T2 construct: Yeast extracts were prepared from freeze-dried yeast; endogenous in cells; host or cells: freeze-dried Saccharomyces cerevisiae (crude glass-bead extract, dialyzed)
Nature of the data set: FAS enzymatic assay, crude yeast extract (NADPH oxidation). Particulars: 30 min incubation at 10°-25° C., read-out: IC50 for inhibition of FAS activity, Yeast. Format: biochemical. The protocol: Preparation of crude cell extracts: The potential of compounds to inhibit FAS enzymatic activity was determined using a crude cell extract of a cancer cell line or Saccharomyces cerevisiae. The breast cancer cell line ZR-75-1 was grown to confluence in RPMI with 10$FBS. The cells were harvested by scraping, washed once with cold phosphate buffered saline pH 7.5 and stored at -80° C. Extracts were prepared by thawing the cells in the presence of 4 vol. of 25 mM potassium phosphate pH 7.5, 1 mM EDTA, 1 mM DTT, 0.4% digitonin, 0.7 μg/ml pepstatin, 2 μg/ml aprotinin and 0.5 μg/ml leupeptin. Cells were homogenized with a Dounce type homogenizer for 20 strokes. Extracts were cleared by two sequential centrifugations at 30,000 xg, for 30 min each. […]
Testing of compound activity: Compounds were tested for their ability to inhibit FAS enzymatic activity by incubating the compounds with the crude cell extracts and measuring residual FAS activity. […] Residual FAS activity was measured as described below. […]
Enzymatic assay conditions: The FAS enzyme activity was measured by monitoring the oxidation of NADPH spectrophotometrically (Dils, R. and E. M. Carey, 1975, Fatty acid synthase from rabbit mammary gland. Methods in Enzymol. 35:74-83). […] The initial rate of NADPH oxidation at 25° C. was measured by monitoring the decrease in absorbance at 340 nm.

For the next data set, the system named is Candida albicans. Nature of the data set: Control organism susceptibility, Candida albicans. Format: cell-based. Particulars: read-out: MIC (control organism).
A further data set relates to SKBr 3 cells. Put plainly: Growth inhibition assay, SKBr 3 cells (crystal violet). Type of data set: cell-based. Particulars: Homo sapiens, SK-BR-3, 72 h; 3 days with compound. The method, then:
as §1

Data set [6] deals with mammary, colon, and prostatic carcinoma lines. Particulars: U.S. Ser. No. 08/096,908 and its CIP; cited from earlier work.
The next data set deals with M. tuberculosis. Put plainly: Radiometric (Bactec) susceptibility test, M. tuberculosis. Type of data set: cell-based. The settings on record: Mycobacterium tuberculosis.
Data set [7] relates to fatty acid synthase expression in MCF-7 cells. Particulars: Northern analysis; cited from earlier work.
The subject of data set [8] is panel of cell lines with varying levels of FAS enzyme activity. Nature of the data set: Anti-proliferative effect on a panel of cell lines with varying levels of FAS. Format: cell-based.
The next data set relates to acyl CoA-synthetase. The settings on record: for long-chain fatty acids; cited from earlier work.
In data set [9] the target is rat liver acyl-CoA synthetase. Particulars: read-out: concentration causing 50% inhibition of acyl-CoA synthetase; cited from earlier work.
In a further data set the test system is Raji cells. The settings on record: cited from earlier work.
In the next data set the test system is Hela cells. Particulars: cited from earlier work.
For another data set, the system named is Vero cells. Particulars: cited from earlier work.

Broadly, the MIC is the lowest concentration found to suppress growth.

Converted amounts (≈) assume the structure as drawn. Some results are limits rather than exact numbers.

For `C/C=C/C/C=C/CCC(=O)[C@H]1O[C@H]1C(N)=O` [CTC002, (2S) (3R) 2,3-epoxy-4-oxo-7,10 dodecadienoyl amide], the “type of inhibition of fatty acid synthase” value in the data set on fatty acid synthase is “specific and non-competitive inhibitor”. Also, in the data set with HIV protease, the “inhibition of viral HIV protease, concentration” value was 5 mg/mL. The “in vitro activity against some bacteria, actinomycetes, and mycobacteria” value in data set [1] is reported as “some in vitro activity”. In data set [2], the “inhibition of myristoylation of proteins” value is listed as “does not specifically inhibit”. In addition, the IC50 is 20 µM with HS 27 cells, 8.6 µM in [4], 0.4 µM in [5] and 20 µM in the data set on SKBr 3 cells. For the same compound, the “in vitro activity against Mycobacterium tuberculosis” value in data set [3] is reported as “no activity”. Further, the minimal inhibitory concentration (MIC) in the data set with Candida albicans was under 1.5 µg/mL. Besides, the “growth inhibition of carcinoma lines” value in [6] is listed as “potently inhibit the growth”.

With `Cc1cccc(/C=C/CCC2C=CC(=O)O2)c1` (centres unmarked) [CTC003], the IC50 in the data set on HS 27 cells was over 50 µM; in data set [4] it was over 100 µM; in the data set with SKBr 3 cells, over 50 µM.

For `Cc1cccc(/C=C/CCC(O)C2OC2C(N)=O)c1` (centres unmarked) [CTC004], the IC50 in the data set with HS 27 cells is over 50 µM; in data set [4] it was over 100 µM; in the data set on SKBr 3 cells it was over 50 µM.

In the case of `Cc1cccc(/C=C/CCCN2C(=O)C=CC2=O)c1` [CTC005], the IC50 is over 50 µM in the data set with HS 27 cells, over 78 µM in [4] and over 50 µM with SKBr 3 cells.

`Cc1cccc(/C=C/CCC(=O)C2OC2C(N)=O)c1` (centres unmarked) [CTC006]: the IC50 in the data set with HS 27 cells stood at 32 µM; in data set [4] it was 10.4 µM; in data set [5], 82 µM; in the data set with SKBr 3 cells, 21 µM. The lowest concentration to inhibit growth with M. tuberculosis (MIC) was 25 µg/mL (≈ 96.4 µM).

Regarding `C/C=C/C/C=C/CCN1C(=O)C=CC1=O` [CTC013], the IC50 is 63 µM in the data set on HS 27 cells, over 97 µM in [4] and 63 µM with SKBr 3 cells.

As to `C/C=C/C/C=C/CCCN1C(=O)C=CC1=O` [CTC014], the IC50 was over 50 µM in the data set with HS 27 cells, over 92 µM in data set [4] and over 50 µM in the data set on SKBr 3 cells.

For `N[C@@H](Cc1cc(I)c(Oc2ccc(O)c(I)c2)c(I)c1)C(=O)O` [T3, reference compound], in data set [7], the “effect on fatty acid synthase expression” value is “no effect”.

`CCCCCCCCCCCCCCOc1ccc(C(=O)O)o1` [TOFA]: the anti-proliferative effect entry in [8] was “anti-proliferative effect”.

Consider `CCCCCC/C=C/C=C/C=N/NN=O` [Triacsin A], for which, in the data set on acyl CoA-synthetase, the “mechanism of inhibition of acyl CoA-synthetase” value is on record as “competitive”.

For the compound `CCC/C=C/C/C=C/C=C/C=NN=NO` [Triacsin C, 1-hydroxy-3-(E, E, E-2',4',7'-undecatrienylidine) triazene], in data set [9], the IC50 was 8.7 µM. Further, the “growth inhibition, concentration” value in the data set on Raji cells was 1.0 µM. In addition, the “growth inhibition of Hela cells” value in the data set on Hela cells was “inhibit growth”. Further, the “growth inhibition of Vero cells” value with Vero cells is “inhibit growth”.

Take `CC(=O)[C@H]1CC[C@H]2[C@@H]3CCC4=CC(=O)CC[C@]4(C)[C@H]3CC[C@]12C` [progesterone, reference compound]: the “increase in fatty acid synthase expression” value in data set [7] is 5-10 fold.

For the compound “insulin growth factor-1: insulin growth factor-1”, the “effect on fatty acid synthase expression” value in data set [7] was “only slightly stimulatory”.

With insulin: insulin, the “effect on fatty acid synthase expression” value in [7] is “only slightly stimulatory”.
